Data on 4 compounds can be found in US20230094227A1, “NOVEL FK506 DERIVATIVE AND COMPOSITION COMPRISING SAME FOR PROMOTING HAIR GROWTH” (SEOUL NATIONAL UNIVERSITY R&DB FOUNDATION, priority 2020, published 2023).

For orientation: IC50 means the concentration that gives 50% inhibition.

The structures appear in SMILES notation. In brackets after ≈: the same amount, converted by molar mass.

The experiment relates to CD4+ T cells. Briefly: in vitro T-cell activity assay (CD4+ T cell proliferation by CTV intensity, flow cytometry). The settings on record: CD3/CD28-activated mouse spleen CD4+ T cells, 72 hours culture; for IC50: Mus musculus, CD4+ T, 72 h, read-out: Immunosuppression IC50. In kind it is cell-based, B6J mice. From the text:
The degree of decrease in immunosuppressive activity of the four novel compounds was investigated by using the conventional in vitro T-cell activity assay (J. Immunol. 143: 718-726, 1989). The division of CD4+ T cells is an indicator that an immune response is taking place, and when CD4+ T cells are stained with Cell Trace™ Violet (CTV) and the cells divide according to the immune response and the T cells proliferate, a phenomenon in which the CTV retention of each cell decreases appears, and thus, the degree of immunosuppressive activity was investigated using this as an indicator.
Single cells were isolated from the spleen of 6 to 8 week-old B6J mice, and CD4+ T cells were isolated using the MagniSort® Mouse CD4 T cell Enrichment Kit (eBioscience). CD4+ T cells were stained with Cell Trace™ Violet (CTV) Cell Proliferation Kit (Molecular Probes), and FK506 or the four novel compounds were added to a concentration of 0.01 ng/mL, 0.1 ng/mL, 1 ng/mL, 10 ng/mL, 100 ng/mL or […], and then, it was cultured for 72 hours. Dynabeads® Mouse T-Activator CD3/CD28 (Gibco) was used for T cell activation. As a control group, non-activated T cells were used. After culture, CTV intensity was analyzed by flow cytometry.
On the technique in general: Flow cytometry measures light scatter and fluorescence of single cells or particles in a stream.

For the compound `CCC[C@@H]1/C=C(\C)C[C@H](C)C[C@H](OC)[C@H]2O[C@@](O)(CC(=O)N3CCC[C@H]3C(=O)O[C@H](/C(C)=C/[C@@H]3CC[C@@H](O)[C@H](OC)C3)[C@H](C)[C@@H](O)CC1=O)[C@H](C)C[C@@H]2OC` [9-deoxo-36,37-dihydro-prolylFK506], the IC50 stood at 3.09 µg/mL (≈ 3.97 µM).

`CC[C@@H]1/C=C(\C)C[C@H](C)C[C@H](OC)[C@H]2O[C@@](O)(CC(=O)N3CCC[C@H]3C(=O)O[C@H](/C(C)=C/[C@@H]3CC[C@@H](O)[C@H](O)C3)[C@H](C)[C@@H](O)CC1=O)[C@H](C)C[C@@H]2OC` [9-deoxo-prolylFK520]: the “Immunosuppression IC50” value is 3.2888 µg/mL.

Regarding `C=CC[C@@H]1/C=C(\C)C[C@H](C)C[C@H](OC)[C@H]2O[C@@](O)(C(=O)C(=O)N3CCCC[C@H]3C(=O)O[C@H](/C(C)=C/[C@@H]3CC[C@@H](O)[C@H](OC)C3)[C@H](C)[C@@H](O)CC1=O)[C@H](C)C[C@@H]2OC` [FK506], the IC50 turned out to be 2.7e-05 µg/mL (≈ 3.36e-05 µM).

With `CCC[C@@H]1/C=C(\C)C[C@H](C)C[C@H](OC)[C@H]2O[C@@](O)(CC(=O)N3CCC[C@H]3C(=O)O[C@H](/C(C)=C/[C@@H]3CC[C@@H](O)[C@H](O)C3)[C@H](C)[C@@H](O)CC1=O)[C@H](C)C[C@@H]2OC` [9-deoxo-31-O-demethyl-36,37-dihydro-prolylFK506], the IC50 amounted to 5.56 µg/mL (≈ 7.27 µM).
